Results from patent US12049450B2, “Pyridyloxy-carboxylate derivative and preparation method therefor, herbicidal composition, and use” (Qingdao Kingagroot Chemical Compound Co., Ltd., priority 2018, dated 2024).

Columns and labels:
Assay in all cases: Post-emergence test experiment (greenhouse pot, spray at 2-3 leaf stage)
Type in all cases: in vivo
Settings in all cases: 1000 g/ha; post-emergence spray at 2-3 leaf stage; assessed after 3 weeks; fresh weight inhibition rate
Monochoria vaginalis = test system: Monochoria vaginalis
Source text: (§1) The activity level standard of harmful plants destruction (i. e. growth inhibition rate) is as follows: • Level 5: the growth inhibition rate is greater than 85%; • Level 4: the growth inhibition rate is equal to or greater than 60% and less than 85%; • Level 3: the growth inhibition rate is equal to or greater than 40% and less than 60%; • Level 2: the growth inhibition rate is equal to or greater than 20% and less than 40%; • Level 1: the growth inhibition rate is equal to or greater than 5% and less than 20%; • Level 0: the growth inhibition rate is less than 5%;
(§2) The above described growth inhibition rate is fresh weight inhibition rate.
(§3) Post-emergence test experiment: Monocotyledonous and dicotyledonous weed seeds and main crop seeds (i. e. wheat, corn, rice, soybean, cotton, oilseed, millet and sorghum.) were put into a plastic pot loaded with soil. Then covered with 0.5-2 cm soil, the seeds were allowed to grow in good greenhouse environment. The test plants were treated at 2-3 leaf stage 2 weeks after sowing. The test compounds of the invention were dissolved with acetone respectively, then added with tween-80, and using 1.5 liters per hectare of an emulsible concentrate of methyl oleate as a synergist, and diluted by certain amount of water to certain concentration. The solution was sprayed to the plants with a sprayer. Then the plants were cultured for 3 weeks in the greenhouse, and the experiment result of weed controlling effect after 3 weeks was listed in tables 3-4.

Galium spurium = test system: Galium spurium
Source text: as §1, §2, §3

Abutilon theophrasti = test system: Abutilon theophrasti
Source text: as §1, §2, §3

Row | SMILES | Activity level (growth inhibition rate) Monochoria Vaginalis (Monochoria vaginalis) | Activity level (growth inhibition rate) Galium spurium (Galium spurium) | Activity level (growth inhibition rate) Abutilon theophrasti (Abutilon theophrasti)
1 | Nc1c(Cl)c(F)nc(OC(C(=O)OCc2ccccc2)c2cccc(Cl)c2)c1Cl (stereo not drawn) [Compound 62] | 5 (Level 5: the growth inhibition rate is greater than 85%) | 5 (Level 5: the growth inhibition rate is greater than 85%) | 5 (Level 5: the growth inhibition rate is greater than 85%)
2 | C#CC(Oc1nc(F)c(Cl)c(N)c1Cl)C(=O)SCc1ccccc1 (stereo not drawn) [Compound 33] | 5 (Level 5: the growth inhibition rate is greater than 85%) | 5 (Level 5: the growth inhibition rate is greater than 85%) | 5 (Level 5: the growth inhibition rate is greater than 85%)
3 | Nc1c(Cl)c(F)nc(OC(F)C(=O)OCc2ccccc2)c1Cl (stereo not drawn) [Compound 34] | 5 (Level 5: the growth inhibition rate is greater than 85%) | 5 (Level 5: the growth inhibition rate is greater than 85%) | 5 (Level 5: the growth inhibition rate is greater than 85%)
4 | COCC(Oc1nc(F)c(Cl)c(N)c1Cl)C(=O)OCc1ccccc1 (stereo not drawn) [Compound 29] | 5 (Level 5: the growth inhibition rate is greater than 85%) | 5 (Level 5: the growth inhibition rate is greater than 85%) | 5 (Level 5: the growth inhibition rate is greater than 85%)
5 | Cc1nn(C)cc1C(Oc1nc(F)c(Cl)c(N)c1Cl)C(=O)SCc1ccccc1 (stereo not drawn) [Compound 58] | 5 (Level 5: the growth inhibition rate is greater than 85%) | 5 (Level 5: the growth inhibition rate is greater than 85%) | 5 (Level 5: the growth inhibition rate is greater than 85%)
6 | COC(=O)C(Oc1nc(F)c(Cl)c(N)c1Cl)C(=O)OCc1ccccc1 (stereo not drawn) [Compound 52] | 5 (Level 5: the growth inhibition rate is greater than 85%) | 5 (Level 5: the growth inhibition rate is greater than 85%) | 5 (Level 5: the growth inhibition rate is greater than 85%)
7 | Nc1c(Cl)c(F)nc(OC(N)C(=O)OCc2ccccc2)c1Cl (stereo not drawn) [Compound 45] | 5 (Level 5: the growth inhibition rate is greater than 85%) | 5 (Level 5: the growth inhibition rate is greater than 85%) | 5 (Level 5: the growth inhibition rate is greater than 85%)
8 | C=CC(Oc1nc(F)c(Cl)c(N)c1Cl)C(=O)OCc1ccccc1 (stereo not drawn) [Compound 32] | 5 (Level 5: the growth inhibition rate is greater than 85%) | 5 (Level 5: the growth inhibition rate is greater than 85%) | 5 (Level 5: the growth inhibition rate is greater than 85%)
9 | Nc1c(Cl)c(F)nc(OC(CCCl)C(=O)OCc2ccccc2)c1Cl (stereo not drawn) [Compound 40] | 5 (Level 5: the growth inhibition rate is greater than 85%) | 5 (Level 5: the growth inhibition rate is greater than 85%) | 5 (Level 5: the growth inhibition rate is greater than 85%)
10 | Nc1c(Cl)c(F)nc(OC(C(=O)OCc2ccccc2)C(F)F)c1Cl (stereo not drawn) [Compound 39] | 5 (Level 5: the growth inhibition rate is greater than 85%) | 5 (Level 5: the growth inhibition rate is greater than 85%) | 5 (Level 5: the growth inhibition rate is greater than 85%)
11 | Nc1c(Cl)c(F)nc(OC(C(=O)OCc2ccccc2)c2ccn(C(F)F)n2)c1Cl (stereo not drawn) [Compound 59] | 5 (Level 5: the growth inhibition rate is greater than 85%) | 5 (Level 5: the growth inhibition rate is greater than 85%) | 5 (Level 5: the growth inhibition rate is greater than 85%)
12 | Nc1c(Cl)c(F)nc(OC(CF)C(=O)SCc2ccccc2)c1Cl (stereo not drawn) [Compound 38] | 5 (Level 5: the growth inhibition rate is greater than 85%) | 5 (Level 5: the growth inhibition rate is greater than 85%) | 5 (Level 5: the growth inhibition rate is greater than 85%)
13 | Nc1c(Cl)c(F)nc(OC(C(=O)OCc2ccccc2)c2ccc3ccccc3c2)c1Cl (stereo not drawn) [Compound 66] | 5 (Level 5: the growth inhibition rate is greater than 85%) | 5 (Level 5: the growth inhibition rate is greater than 85%) | 5 (Level 5: the growth inhibition rate is greater than 85%)
14 | Nc1c(Cl)c(F)nc(OC(CO)C(=O)OCc2ccccc2)c1Cl (stereo not drawn) [Compound 48] | 5 (Level 5: the growth inhibition rate is greater than 85%) | 5 (Level 5: the growth inhibition rate is greater than 85%) | 5 (Level 5: the growth inhibition rate is greater than 85%)
15 | Nc1c(Cl)c(F)nc(OC(C(=O)OCc2ccccc2)c2cccnc2)c1Cl (stereo not drawn) [Compound 64] | 5 (Level 5: the growth inhibition rate is greater than 85%) | 5 (Level 5: the growth inhibition rate is greater than 85%) | 5 (Level 5: the growth inhibition rate is greater than 85%)
16 | Nc1c(Cl)c(F)nc(OC(CC(F)(F)F)C(=O)SCc2ccccc2)c1Cl (stereo not drawn) [Compound 42] | 5 (Level 5: the growth inhibition rate is greater than 85%) | 5 (Level 5: the growth inhibition rate is greater than 85%) | 5 (Level 5: the growth inhibition rate is greater than 85%)
17 | Nc1c(Cl)c(F)nc(OC(C(=O)SCc2ccccc2)c2ccoc2)c1Cl (stereo not drawn) [Compound 55] | 5 (Level 5: the growth inhibition rate is greater than 85%) | 5 (Level 5: the growth inhibition rate is greater than 85%) | 5 (Level 5: the growth inhibition rate is greater than 85%)
18 | Nc1c(Cl)c(F)nc(OC(Cl)C(=O)OCc2ccccc2)c1Cl (stereo not drawn) [Compound 35] | 5 (Level 5: the growth inhibition rate is greater than 85%) | 5 (Level 5: the growth inhibition rate is greater than 85%) | 5 (Level 5: the growth inhibition rate is greater than 85%)
19 | Nc1c(Cl)c(F)nc(OC(C(=O)OCc2ccccc2)c2cscn2)c1Cl (stereo not drawn) [Compound 56] | 5 (Level 5: the growth inhibition rate is greater than 85%) | 5 (Level 5: the growth inhibition rate is greater than 85%) | 5 (Level 5: the growth inhibition rate is greater than 85%)
